The test system of assay [1] is advanced metastatic breast cancer. The note with it: monotherapy or combined with chemotherapies; ref Ebos & Kerbel, 2011; Mackey et al, 2012; cited from earlier work. The text has this:
These clinical results were recently replicated in a preclinical model of postsurgical advanced MBC (Guerin et al, [2013]). As discussed previously (Guerin et al, [2013]), primary and secondary tumors may have divergent responses to anti-angiogenic ...

Assay [2] relates to LM2-4luc experimental metastasis. As to conditions: SU prior to IV inoculation of LM2-4luc; ref Ebos et al, 2009; cited from earlier work. The source says:
Here, we tested whether concurrent VT therapy can be used to reverse this pro-metastatic potential of SU in the same model. LM2-4^luc is a metastatically aggressive luciferase-tagged derivative of the MDA-MB-231 cell line that was derived through serial in vivo selection ...

Assay [3] deals with human microvascular ECs of dermal blood vessel origin (HMVEC-DBl). In words: modified Boyden chamber, thrombin-stimulated FITC-dextran permeability, HMVEC-DBl. The note with it: Fig1D. It is filed as cell-based. The procedure: ECs were first treated with Vasculotide (VT), PBS (vehicle/negative control), Ang1 (positive control), PEG-Cys (polyethylene glycol backbone), T7c (non-PEGylated CHHHRHSF peptides), or VT in the presence of 100-fold molar excess of T7c. The concentrations used, 10–20 ng/mL VT and 200–400 ng/mL Ang1, are estimated molar equivalents (0.71–1.43 nM). Thirty minutes later, ECs were stimulated with thrombin, 0.1% BSA (vehicle/negative control), or EDTA (positive control). Another 30mins later, the amount of FITC-dextran diffusion into the lower chambers (A, D) provides a measure of endothelial permeability. CMTPX-labeled tumor cells (TCs) were then dispensed into inserts, and the amount of TC fluorescence emitting from the underside of insert membranes after 20 h (B–C) or 28 h (E) reflects the efficiency of trans-endothelial TC migration. Representative fluorescent images (10×) of membrane undersides are shown in (C), where DAPI-stained nuclei of ECs/TCs are shown in blue, ‘extravasated’ CMTPX-labeled TCs are shown in red, and the # of CMTPX^+ pixels are shown numerically in red. Means ± SEM are shown (A,B,D,E). Three experiments (twice with HMVEC-LBl and once with HMVEC-DBl) were run with n = 3–5 inserts (independent biological replicates) per group and analyzed by two-sampled unpaired t-tests. […]
Endothelial cells (ECs) were grown on cell culture inserts with uncoated 8-μm-pore PET filter membranes to 100% confluency. […] After 30 min of thrombin stimulation or 4–6 h of TC-CM stimulation, FITC fluorescence (ex/em = 490/520 nm) was measured from a 50 μl sample of the lower chamber media. […] CMPTX fluorescence from migrated TCs was then quantified from 10× microscopy images using a MATLAB (MathWorks, Natick, MA, USA) script; five images (technical replicates) were analyzed per insert. […]

In assay [4] the target is T1, human Tie2-Fc (Fc-conjugated extracellular domain of Tie2) (human, UniProt Q02763 23-748).
T1 chain: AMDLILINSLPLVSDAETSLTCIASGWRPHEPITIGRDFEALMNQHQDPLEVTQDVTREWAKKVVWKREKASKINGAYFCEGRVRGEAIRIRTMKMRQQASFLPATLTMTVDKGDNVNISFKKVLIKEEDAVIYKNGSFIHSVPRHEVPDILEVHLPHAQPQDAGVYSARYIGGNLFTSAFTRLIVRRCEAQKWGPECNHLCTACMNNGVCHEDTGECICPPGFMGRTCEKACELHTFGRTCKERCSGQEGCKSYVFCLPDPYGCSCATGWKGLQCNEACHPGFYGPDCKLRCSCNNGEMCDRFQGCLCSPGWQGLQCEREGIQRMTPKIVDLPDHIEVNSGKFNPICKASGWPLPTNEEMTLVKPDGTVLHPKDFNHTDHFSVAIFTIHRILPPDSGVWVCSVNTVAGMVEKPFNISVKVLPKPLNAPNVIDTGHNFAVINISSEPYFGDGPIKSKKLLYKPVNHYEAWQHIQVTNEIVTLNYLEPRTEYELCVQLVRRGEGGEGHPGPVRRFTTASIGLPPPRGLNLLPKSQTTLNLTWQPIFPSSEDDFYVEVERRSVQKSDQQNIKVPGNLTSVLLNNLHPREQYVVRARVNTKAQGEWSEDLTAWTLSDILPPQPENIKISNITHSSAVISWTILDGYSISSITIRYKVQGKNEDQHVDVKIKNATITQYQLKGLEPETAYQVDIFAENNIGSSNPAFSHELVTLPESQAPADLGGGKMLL
The assay can be described thus: SPR. (In general: SPR reads the build-up and loss of mass on a sensor chip optically.)

Turning to `CCN(CC)CCNC(=O)c1c(C)[nH]c(/C=C2\C(=O)Nc3ccc(F)cc32)c1C` [sunitinib, reference compound], in assay [1], the “phase III clinical trial outcome” value is on record as “repeatedly failed in multiple phase III clinical trials”. The “experimental metastasis, especially in the lungs” value in assay [2] was “promotion of experimental metastasis, especially in the lungs”. Turning to “CHHHRHSF [Vasculotide, 4-armed maleimide-functionalized polyethylene glycol (PEG) backbone to link together four cysteine-capped T7 peptides, that is, CHHHRHSF]”, the “anti-permeability effect of VT in presence of 100-fold molar excess of T7c” value in assay [3] (HMVEC-DBl) was “dampened the effects of VT”. In assay [3] (thrombin-stimulated HMVEC-DBl, VT 10–20 ng/mL, FITC fluorescence ex/em 490/520 nm, n = 3–5 inserts), the “transendothelial permeability of FITC-dextran” value is given as “counteract thrombin-stimulated increases in transendothelial permeability of FITC-dextran (P < 0.05”.

B1: recombinant human Ang1 (rhAng1) (ligand, UniProt Q15389 16-498, looked up)
chain: HIGCSNQRRSPENSGRRYNRIQHGQCAYTFILPEHDGNCRESTTDQYNTNALQRDAPHVEPDFSSQKLQHLEHVMENYTQWLQKLENYIVENMKSEMAQIQQNAVQNHTATMLEIGTSLLSQTAEQTRKLTDVETQVLNQTSRLEIQLLENSLSTYKLEKQLLQQTNEILKIHEKNSLLEHKILEMEGKHKEELDTLKEEKENLQGLVTRQTYIIQELEKQLNRATTNNSVLQKQQLELMDTVHNLVNLCTKEGVLLKGGKREEEKPFRDCADVYQAGFNKSGIYTIYINNMPEPKKVFCNMDVNGGGWTVIQHREDGSLDFQRGWKEYKMGFGNPSGEYWLGNEFIFAITSQRQYMLRIELMDWEGNRAYSQYDRFHIGNEKQNYRLYLKGHTGTAGKQSSLILHGADFSTKDADNDNCMCKCALMLTGGWWFDACGPSNLNGMFYTAGQNHGKLNGIKWHYFKGPSYSLRSTTMMIRPLDF
notes: angiopoietin-1, human, recombinant; also called angiopoietin-1; source: bought: R&D Systems (named for the Boyden chamber experiments)
As for B1, the koff in assay [4] was 0.00029 s⁻¹.

A word on the koff: it is the rate constant with which the complex falls apart.

The values are drawn from paper PMC4459817, “Vasculotide reduces endothelial permeability and tumor cell extravasation in the absence of binding to or agonistic activation of Tie2” (EMBO Molecular Medicine, 2015).
